Measurements: patent US20230172958A1, “USE OF COMPOUNDS FOR TREATING VIRAL INFECTIONS” (priority 2020, published 2023)
“Also recorded” adds a separate entry of the source. Read-outs that look alike come from different tables or passages of the source.

How the values were obtained:
SARS-CoV-2 [1] = assay: Anti SARS-CoV-2 IC50 estimation by qRT-PCR in VeroE6 cells; format: cell-based; details: Severe acute respiratory syndrome coronavirus 2, Vero C1008
SARS-CoV-2 [2] = format: in vivo, golden Syrian hamster
[3] = Cytotoxicity by Hoechst 33342 / Sytox orange staining; format: cell-based; details: African green monkey, Vero E6 cells
Experimental: The assay was done in a 96 well plate format in 3 wells for each sample. 1×10e4 Vero E6 cells were plated per well and incubated at 37° C. overnight for monolayer formation. Next day, cells were incubated with the test substance (TS) at the indicated concentration with final DMSO concentration being 0.5%. The Control cells were incubated with 0.5% DMSO only. 24 and 48 hours later, cells were stained with Hoechst 33342 and Sytox orange dye. Images were taken at 10×, 16 images per well, which covers 90% of the well area using ImageXpress Microconfocal (Molecular Devices). Hoechst 33342 nucleic acid stain is a popular cell-permanent nuclear counterstain that emits blue fluorescence when bound to dsDNA. It stains all the live and dead cells. Sytox orange dye stains the nucleic acid in the cells with compromised membranes. This stain is an indicator of cell death. First, the software will count total number of cells in the Hoechst image. In the Sytox image, it will count, among Hoechst positive cells, how many cells are positive for Sytox.

[4] = Neutral Red toxicity assay, uninfected cultures; format: cell-based; details: African green monkey, Vero 76 cells (uninfected monolayers), cell-inhibitory
Experimental: Confluent or near-confluent cell culture monolayers of Vero 76 cells were prepared in 96-well disposable microplates the day before testing. Cells were maintained in MEM (Minimum Essential Medium Eagle) supplemented with 5% FBS (Fetal Bovine Serum). For antiviral assays the same medium was used but with FBS reduced to 2% and supplemented with 50-μg/ml gentamicin.
Compounds were dissolved in DMSO, saline or the diluent. […] The test compound was prepared at four serial log10 concentrations, usually 0.1, 1.0, 10, and 100 μg/ml or μM. Lower concentrations were used when insufficient compound was supplied. Five microwells were used per dilution: three for infected cultures and two for uninfected toxicity cultures. Controls for the experiment consisted of six microwells that were infected and not treated (virus controls) and six that were untreated and uninfected (cell controls) on every plate. A known active drug was tested in parallel as a positive control drug using the same method as was applied for test compounds. The positive control was tested with every test run.
Growth media was removed from the cells and the test compound was applied in 0.1 ml volume to wells at 2× concentration. Virus, normally at ˜60 CCID50 (50% cell culture infectious dose) in 0.1 ml volume is added to the wells designated for virus infection. Medium devoid of virus was placed in toxicity control wells and cell control wells. […] The plates were then stained with 0.011% neutral red for approximately two hours at 37° C. in a 5% CO2 incubator. The neutral red medium was removed by complete aspiration, and the cells may be rinsed 1× with phosphate buffered solution (PBS) to remove residual dye. The PBS was completely removed, and the incorporated neutral red was eluted with 50% Sorensen's citrate buffer/50% ethanol for at least 30 minutes. Neutral red dye penetrates into living cells, thus, the more intense the red color, the larger the number of viable cells present in the wells. The dye content in each well was quantified using a spectrophotometer at 540 nm wavelength. The dye content in each set of wells was converted to a percentage of dye present in untreated control wells using a Microsoft Excel computer-based spreadsheet and normalized based on the virus control. The 50% effective (EC50, virus-inhibitory) concentrations and 50% cytotoxic (CC50, cell-inhibitory) concentrations are then calculated by regression analysis. The quotient of CC50 divided by EC50 gives the selectivity index (SI) value.

[5] = test system: Human Peripheral Blood Lymphocytes; assay: MTT toxicity assay on normal cells; format: cell-based; details: 48 hours
Experimental: Toxicity studies of compounds of the present invention on normal cells The toxicity study was performed on Human Peripheral Blood Lymphocytes obtained differential centrifugation of defibrinated blood. MTT assay for compound of the present invention was performed to determine its toxicity. MTT assay is a simple and sensitive assay where, metabolic reducing activity of the cells is measured. It was carried out in the following manner.
A required volume of cell suspension was prepared as per the cell plating efficiency. 200 μl of prepared cell suspension was added in labelled 96 well plates and the plates were placed in an incubator for 18-24 hours at 37° C. and 5% CO2. Then, 2 μl of respective compound dilution was added and the plates were placed in the incubator for 48 hours at 37° C. and 5% CO2. The suspension was aspirated from the plates and 100 μl of working MTT solution (0.5 mg/ml MTT prepared from 5 mg/ml MTT stock in 1× complete media) was added. The plates were incubated in the incubator for 4 hours at 37° C. and 5% CO2. The plates were spinned down, supernatant removed, 200 μl DMSO was added, mixed gently and placed in the incubator for 10 minutes at 37° C. and 5% CO2. The absorbance at 570 nm was read and percentage viability and IC50 value of the compounds was calculated using regression analysis.

Bacterial mutation study = assay: Bacterial mutation study
Experimental: (§1) Various pre-clinical GLP (Good Laboratory Practice) and non-GLP studies were performed with the compound of Formula E. These included 7-day and 28- days studies on rats and dogs, acute toxicity in rats, mice and dogs. The effect of the compound of Formula E on respiratory function, nervous system and cardiovascular system, bacterial mutation, metabolism, CaCo2 permeability, protein binding and cytochrome effect was also studied.

[6] = Pre-clinical GLP and non-GLP toxicity and safety studies; format: in vivo
Experimental: as §1

SARS-CoV-2 [7] = assay: Neutral Red reduction of virus-induced cytopathic effect (primary CPE assay) in Vero 76 cells; format: cell-based; details: Severe acute respiratory syndrome coronavirus 2, virus-inhibitory
SARS-CoV-2 [8] = assay: Antiviral screening by qRT-PCR in VeroE6 cells; format: cell-based; details: Severe acute respiratory syndrome coronavirus 2, Vero C1008, 10 μM

COC1COC(Oc2ccc(-c3ccc4c(c3)OCO4)c3ccccc23)C(O)C1OC (stereo not shown) [Compound of Formula E, 2-(1-(benzo[d][1,3]dioxol-5-yl)naphthalen-4-yloxy)-tetrahydro-4,5-dimethoxy-2H-pyran-3-ol]
IC50 (SARS-CoV-2 [1]; VeroE6, MOI 0.01, 48 hours, qRT-PCR E gene, read-out: IC50 value (μM) E gene): 0.571 µM | IC50 (SARS-CoV-2 [1]; VeroE6, MOI 0.01, 48 hours, qRT-PCR N gene, read-out: IC50 value (μM) N gene): 0.586 µM | IC50 (SARS-CoV-2 [1]; conclusion statement, read-out: anti-SARS-CoV-2 activity IC50): < 10 µM | IL4 mRNA expression in splenocytes (SARS-CoV-2 [2]; across all the groups): dramatic inhibition | body mass loss post infection (SARS-CoV-2 [2]; hamster, in vivo): did not lose weight post infection; also recorded: second best recovery; also recorded: marginal protection | gross lung pneumonitis and inflammation, day 4 post challenge (SARS-CoV-2 [2]; hamster, in vivo): significantly lesser regions of pneumonitis and inflammation | histological parameters and overall disease score (H&E) (SARS-CoV-2 [2]; hamster, in vivo): best protection | histological protection (H&E) (SARS-CoV-2 [2]; hamster, in vivo): little, or no protection | pneumonitis, alveolar epithelial injury and lung inflammation score (H&E) (SARS-CoV-2 [2]; hamster, in vivo): good reduction | reduction in relative lung viral load (N2 gene) (SARS-CoV-2 [2]; hamster, in vivo): 5 fold | splenomegaly (SARS-CoV-2 [2]; hamster, in vivo): significant mitigation | spleen size (SARS-CoV-2 [2]; other drug groups (δI/200, δII/800, δIV/400)): little or no reduction | overall protective efficacy against SARS-CoV-2 infection (SARS-CoV-2 [2]; pre-treatment with 400 mpk, compared to Remdesivir): decreased lung viral load and pneumonitis compared to Remdesivir | IL17A mRNA expression in splenocytes (SARS-CoV-2 [2]; δI/200): inhibition | INFγ mRNA expression in splenocytes (SARS-CoV-2 [2]; δI/200): highest induction | IL17A mRNA expression in splenocytes (SARS-CoV-2 [2]; δIII/p400): inhibition | viability at 24 h, 10 µM ([3]; 24 hours, read-out: % Cell viability 24 hours): 99.6% | viability at 48 h, 10 µM ([3]; 48 hours, read-out: % Cell viability 48 hours): 77.8% | CC50 [4]: 2.5 µg/mL | IC50 (μM) [5]: No activity (Nontoxic) | mutagenicity (Bacterial mutation study): non-mutagenic | toxic or adverse effect at higher dose ([6]; 2000 mg/kg in rats, mice and dogs): did not show any toxic or adverse effect | toxicity in pre-clinical studies ([6]; 7-day and 28-days studies on rats and dogs, acute toxicity in rats, mice and dogs): non-toxic | clastogenicity ([6]; in vivo): non-clastogenic | effect on the respiratory, nervous and cardiovascular system ([6]; in vivo): no effect | EC50 (SARS-CoV-2 [7]): 0.35 µg/mL | inhibition at 10 µM (SARS-CoV-2 [8]; 24 hours post infection, E gene, read-out: % inhibition of virus replication 24 hours post infection E): 75.4% | inhibition at 10 µM (SARS-CoV-2 [8]; 24 hours post infection, N gene, read-out: % inhibition of virus replication 24 hours post infection N): 81.3% | inhibition at 10 µM (SARS-CoV-2 [8]; 48 hours post infection, E gene, read-out: % inhibition of virus replication 48 hours post infection E): 99.5% | inhibition at 10 µM (SARS-CoV-2 [8]; 48 hours post infection, N gene, read-out: % inhibition of virus replication 48 hours post infection N): 99.7% | logP (physchem): ~4
